Consider two molecules from publication PMC9539280 (Advanced Science, 2022).

For series [1] the following is noted: in vivo; cited from earlier work.
The subject of series [2] is hCMs.
Series [3] deals with hCMs (human pluripotent stem cell-derived cardiomyocytes). The series can be described thus: Cytotoxicity assay, calcein-AM/PI double staining, relative cell viability. In kind it is cell-based. The protocol: (§1) hCMs were dissociated with 0.25% trypsin/EDTA (25200072, Gibco) and then seeded into 384‐well plates at the density of 8 × 10^3 cells per well. 24 h after seeding, cells were exposed to the drugs at the indicated concentrations for 6 days. Culture media were fully changed every 3 days with new drug supplementation. After drug treatment, cells were stained with calcein‐AM/PI/Hoechst for 20 min using calcein‐AM/PI double staining kit (C542, DOJINDO). Images were captured by the Operetta CLS High‐Content Analysis System (PerkinElmer). Number of live cells (calcein‐AM+/PI‐) and dead cells (PI+) was quantified by using the Harmony 4.9 software (PerkinElmer). Number of live cells was used to calculate the “relative cell viability” as follows (1) relarivecellviability=numberoflivecellsineachtreatment/numberoflivecellsinDMSOcontrol×100%

In series [4] the test system is hCMs. The source holds these as a separate data set.
In series [5] the test system is hCMs. This is another data set of the same source.
The subject of series [6] is hEHTs (human engineered heart tissues).
Series [7] deals with hCMs. This is another data set of the same source.
The subject of series [8] is hEHTs (human engineered heart tissues). This is another data set of the same source.
Series [9] shares this test system. The series can be described thus: TUNEL/α-actinin staining of hEHTs. The settings on record: 2 × 10^−6 M remdesivir and 2 × 10^−6 M astaxanthin for 2 days.
The subject of series [10] is remdesivir-treated hCMs. Put plainly: High-throughput screening and validation of compounds protective against remdesivir (cell viability). The format is cell-based, human. The protocol: as §1
hCMs were seeded into 384‐well plates at a density of 8 × 10^3 cells per well. 24 h after seeding, the cells were treated with either 25 × 10^−6 M remdesivir alone or remdesivir with the chemicals from a Bioactive Compound Library (Topscience) consisted of 2464 natural compounds and US FDA‐approved drugs for 6 days. Chemicals at the concentration of 5 × 10^−6 M were transferred to the plates by using a Tecan Freedom EVO 150 liquid handler.

For series [11], the system named is mitochondrial permeability transition pore. The settings on record: not told; cited from earlier work.
The test system of series [12] is hCMs. Put plainly: Calcium measurement in hCMs under electrical field stimulation. The settings on record: 10 × 10^−6 M remdesivir plus 10 × 10^−6 M astaxanthin, 6 days.
In series [13] the test system is hCMs. The series can be described thus: Mitochondrial (MitoSox) and intracellular (DCFH-DA) ROS measurement in hCMs. The format is cell-based, human. The settings on record: remdesivir 10 μM; Asta 10 μM, Vc 50 μg/ml, Vb1 10 μg/ml, NAC 1 mM, GSH 25 μg/ml; 4 or 6 days. The protocol: Mitochondrial‐associated ROS and intracellular ROS were measured using MitoSox Red Mitochondrial Superoxide Indicator (M‐36008, ThermoFisher) and DCFH‐DA (S0033S, Beyotime), respectively. For mitochondrial‐associated ROS measurement, hCMs were loaded with 4 × 10^−6 M MitoSox dye in Hanks' balanced salt solution buffer for 15 min at 37 °C and washed twice with PBS. The MitoSox fluorescence (excitation/emission = 510/580 nm) was detected and quantified by the Operetta CLS High‐Content Analysis System. For intracellular ROS measurement, hCMs were loaded with 10 × 10^−6 M DCFH‐DA in serum‐free medium for 20 min at 37 °C and washed twice with serum‐free medium. The DCFH fluorescence (excitation/emission = 488/525 nm) was detected and quantified by the Operetta CLS High‐Content Analysis System.

Series [14] relates to hEHTs (human engineered heart tissues). Put plainly: Contractile force / spontaneous contractility of hEHTs. The settings on record: 2 × 10^−6 M remdesivir and 2 × 10^−6 M astaxanthin for 2 days.
The subject of series [15] is hCMs. Put plainly: Spontaneous calcium transient measurement (Fluo-4) in hCMs. The settings on record: 10 × 10^−6 M remdesivir plus 10 × 10^−6 M astaxanthin, 6 days.

The structures appear in SMILES notation.

In general, Cmax refers to the maximum level reached in the sampled fluid or tissue. On to `Cc1cccc(/C=N/Nc2cc(N3CCOCC3)nc(OCCc3ccccn3)n2)c1` [Apilimod, apilimod], for which the Cmax in [1] is 270 nM. In [2], the calcium transient amplitude result is “without apparently affecting”, the “time to 50% decay of the calcium transients” value was “increased” and the “time to peak of the calcium transients” value was “increased”. Also, in [3] (6 days, escalating concentrations (0.03-3 or 1-30 × 10^−6 M), calcein-AM/PI), the “cell viability of hCMs” value was “dose‐dependent decrease”. For the same molecule, in series [4], the “sarcomere organization of hCMs” value is given as “sarcomeric disarray”. Further, the “intracellular calcium handling properties of hCMs” value in series [5] is recorded as “impair”. Moreover, in series [6], the “abnormal beating of hEHTs (spontaneous contractility)” value was “more severe”, the “contractile force of hEHTs” value is recorded as “much lower”, the “hEHT function (tissue level cardiotoxicity)” value is on record as “weaken hEHT function” and the “passive force of hEHTs” value is on record as “increases of the passive force”. The “apoptosis of hCMs (TUNEL)” value in [7] is “increased apoptosis”. In addition, the “toxicity to hEHTs” value in [8] is reported as “toxic to hEHTs”.
In the case of `CC1=C(/C=C/C(C)=C/C=C/C(C)=C/C=C/C=C(C)/C=C/C=C(C)/C=C/C2=C(C)C(=O)[C@@H](O)CC2(C)C)C(C)(C)C[C@H](O)C1=O` [astaxanthin], the “cell apoptosis in hEHTs exposed to remdesivir” value in series [9] is listed as “remarkably decreased”. Besides, in [10], the “protective effect against remdesivir compared with the other hits” value is listed as “most prominent protective effect”. For the same molecule, in [10] (10 × 10^−6 or 25 × 10^−6 M remdesivir for 6 days with co-administration), the “remdesivir-induced cardiotoxicity (cell viability), protection” value is “confirmed to reduce”. The “opening of mitochondrial permeability transition pore” value in series [11] is recorded as “inhibit the opening”. In [3] (absence of remdesivir, 3 μM and 10 μM), the “effects on normal hCMs (viability, apoptosis, sarcomere organization)” value is on record as “little effects”. Further, the “frequency of abnormal beating caused by remdesivir” value in series [12] is “relieved dramatically”. Further, in series [13], the “could alter the level of ROS in hCMs when co-stimulated with remdesivir” value was “neither”. For the same molecule, in series [14], the “decrease in contractile force induced by remdesivir in hEHTs” value is reported as “significantly resolved” and the “proportion of abnormal beating induced by remdesivir in hEHTs” value is given as “significantly resolved”. For the same molecule, the “remdesivir-induced alterations in calcium transient duration” value in [15] was “reversed”.
